Literature values, collected in patent US12161661B2, “Topical composition for destroying, in vivo, an external hyperplastic tissue, such as, but not limited to, a viral skin lesion, such as, but not limited to, a viral wart” (priority 2022, dated 2024).
Where two headings read alike, the source gives them in different places.

Experiments:
warts [1] = tested on: warts
[2] = tested on: warts on the palms and soles
flat warts on the face [3] = details: 0.7% cantharidin, over 16 weeks on average
warts [4] = details: 80% solution every week for 6 weeks
warts [5] = tested on: warts; remark: listed apart in the source
warts [6] = details: 1 of 30
plantar warts [7] = details: 12 weeks; 19/20
[8] = tested on: warts of the hands and legs; details: 5% cream once a day for 4 weeks, with occlusion
warts [9] = details: oral, within 3 months, children aged 2.5-12.5 years; 16/20
warts [10] = tested on: warts; remark: listed apart in the source
periungual warts = details: once in two weeks for 6 weeks, after fractional CO2 laser
[11] = tested on: warts on the hands and feet; details: plus light source PDL
warts [12] = tested on: warts; remark: listed apart in the source
plantar warts [13] = details: 10% solution
flat warts on the face [14] = details: after 2 months, 0.5 mg/kg. per day
[15] = 15-26% salicylic acid locally every day for 3 to 4 months

O=C(O)c1ccccc1O [salicylic acid]
average cure rate (warts [1]; [15]): 49% | cure rate, range (warts [1]; [15]): 0-69% | effect of the salicylic acid (qualitative studies) (warts [1]; in vivo): low

O=c1c(-c2ccccc2)c1-c1ccccc1 [DPC, Diphenylcyclopropenone]
complete disappearance of warts ([2]; 48 patients treated with DPC): 88% | average processing time ([2]; human, in vivo): 5 months | recurrence ([2]; within 2 years): no recurrence was observed

C[C@@]12C(=O)OC(=O)[C@]1(C)[C@H]1CC[C@@H]2O1 [cantharidin]
cure (flat warts on the face [3]): cure in all 15 patients

Oc1ccccc1 [phenol]
cure rate (warts [4]): 83%

CC(=O)C(=O)O [pyruvic acid]
recovery, patients (warts [5]; in combination with 0.5% 5-FU): 80% | recovery, patients (warts [5]; pyruvic acid alone): 70%

CC1=C(/C=C/C(C)=C/C=C/C(C)=C/C(=O)O)C(C)(C)CCC1 [tretinoin]
effect achieved, patients (warts [6]): 3%

O=c1[nH]cc(F)c(=O)[nH]1 [5-FU, Ftoruracil]
complete cure, patients (plantar warts [7]): 95% | warts cleared at the end of treatment [8]: 60%

CCOC(=O)/C=C(C)/C=C/C=C(C)/C=C/c1c(C)cc(OC)c(C)c1C [etretinate]
effect observed (warts [9]): 80%

bleomycin
cure rate (wart; 0.1-1 mg injected into the wart, compared with cryotherapy): 92-97% | pain after injection, duration (wart; main side effect): up to 48 hours

CC(C)Cn1cnc2c(N)nc3ccccc3c21 [Imiquimod]
curing, patients (warts [10]; 9.5 weeks, 50 patients of whom 19 had immunosuppression): 56% | patients with a 50% egression of warts (warts [10]; twice daily for up to 24 weeks): 76%

COC(=O)CCC(=O)CN [MAL-PDT, methyl5-aminolaevuninic acid]
cure rate (periungual warts): 90% | resolution of treated warts [11]: 53%

Nc1ccn(C[C@@H](CO)OCP(=O)(O)O)c(=O)n1 [Cidofovir]
resolution of warts (warts [12]; average of 3.2 injections per course): 98% | side effects (warts [12]; in vivo): nephrotoxicity, neutropenia, and metabolic acidosis

O=CCCCC=O [Glutaraldehyde]
efficiency compared with salicylic acid (plantar warts [13]): equivalent to the solution of salicylic acid | effectiveness (resistant warts; 25 patients): 72% | tolerability (resistant warts; human, in vivo): well tolerated

CC1=C(/C=C/C(C)=C/C=C/C(C)=C\C(=O)O)C(C)(C)CCC1 [isotretinoin]
effect (flat warts on the face [14]): 73%
